Activity calls are given as the source filed them. The rule behind the calls is not given here.
Key:
MGC-803 = assay: Antiproliferative activity against human MGC-803 cells assessed as inhibition of cell growth incubated for 72 hrs by SRB assay; type: functional, cell-based; conditions: MGC-803, 72 h
MCF7 = assay: Antiproliferative activity against human MCF7 cells assessed as inhibition of cell growth incubated for 72 hrs by SRB assay; type: functional, cell-based; conditions: MCF7, 72 h
ECa-109 cell line [1] = assay: Antiproliferative activity against human EC109 cells assessed as reduction in survival rate after 24 to 72 hrs by SRB assay; type: functional, cell-based; conditions: time 24-72 hrs
ECa-109 cell line [2] = assay: Antiproliferative activity against human EC109 cells assessed as reduction in survival rate at 0 to 8 uM by SRB assay; type: functional, cell-based; conditions: dose 0-8 µM, TDE = time-dependent effect
HUVEC [3] = assay: Cytotoxicity against HUVEC assessed as reduction in survival rate after 24 to 72 hrs by SRB assay; type: cell-based; conditions: human, time 24-72 hrs
HUVEC [4] = assay: Cytotoxicity against HUVEC assessed as reduction in survival rate at 0 to 8 uM by SRB assay; type: cell-based; conditions: human, TDE = time-dependent effect, dose 0-8 µM
GES1 = assay: Cytotoxicity against human GES1 cells assessed as inhibition of cell growth incubated for 72 hrs by SRB assay; type: cell-based; conditions: GES1, 72 h
ECa-109 [5] = assay: Inhibition of clone formation in human EC109 cells at 0.125 to 0.5 uM after 7 days by crystal violet staining based assay; type: functional, cell-based; conditions: dose 0.125-0.5 µM, time 7.0 day
ECa-109 cell line [6] = assay: Induction of apoptosis in human EC-109 cells assessed as apoptotic rate at 1.5 uM after 48 hrs by Annexin V-FITC/propidium iodide staining based flow cytometry (reference value: 3.2 %); type: functional
ECa-109 cell line [7] = assay: Induction of mitochondrial depolarization in human EC-109 cells assessed as depolarized cell population at 0.75 uM measured after 24 hrs by JC1 dye based flow cytometry (reference value: 4.2 %); type: functional
ECa-109 cell line [8] = assay: Induction of mitochondrial depolarization in human EC-109 cells assessed as depolarized cell population at 1.5 uM measured after 24 hrs by JC1 dye based flow cytometry (reference value: 4.2 %); type: functional
ECa-109 cell line [9] = assay: Induction of apoptosis in human EC109 cells assessed as increase in cleaved caspase 9 expression after 24 hrs by Western blot analysis; type: functional, cell-based
ECa-109 cell line [10] = assay: Induction of apoptosis in human EC109 cells assessed as increase in BimL expression after 24 hrs by Western blot analysis; type: functional, cell-based
ECa-109 cell line [11] = assay: Induction of apoptosis in human EC109 cells assessed as increase in BimS expression after 24 hrs by Western blot analysis; type: functional, cell-based
ECa-109 cell line [12] = assay: Induction of apoptosis in human EC109 cells assessed as increase in phosphorylated MKK4 expression incubated for 24 hrs by Western blot analysis; type: functional, cell-based
ECa-109 cell line [13] = assay: Induction of apoptosis in human EC109 cells assessed as activation of c-jun phosphorylation at Ser63 residue at 0.75 to 3 uM incubated for 24 hrs by Western blot analysis; type: functional, cell-based; conditions: dose 0.75-3 µM
ECa-109 cell line [14] = assay: Antiproliferative activity against human EC109 cells assessed as survival rate preincubated with N-acetylcysteine for 4 hrs followed by compound addition and measured after 24 hrs by SRB assay; type: functional
ECa-109 [15] = assay: Inhibition of clone formation in human EC109 cells at 0.5 uM after 7 days in presence of N-acetylcysteine by crystal violet staining based assay; type: functional, cell-based; conditions: time 7.0 day
ECa-109 cell line [16] = assay: Induction of morphological changes in human EC109 cells assessed as appearance of contracted and rounded cells; type: functional, cell-based
ECa-109 cell line [17] = assay: Induction of morphological changes in human EC109 cells assessed as decrease in number of cells; type: functional, cell-based
ECa-109 cell line [18] = assay: Induction of morphological changes in human EC109 cells assessed as decrease in number of cells in presence of N-acetylcysteine; type: functional, cell-based
ECa-109 cell line [19] = assay: Induction of apoptosis in human EC109 cells assessed as increase in intracellular ROS level at 3 uM incubated for 24 hrs by DCFH-DA staining based flow cytometry analysis (reference value: 0.6 %); type: functional
ECa-109 cell line [20] = assay: Induction of apoptosis in human EC-109 cells assessed as apoptotic rate at 3 uM after 48 hrs by Annexin V-FITC/propidium iodide staining based flow cytometry (reference value: 3.8 %); type: functional
ECa-109 cell line [21] = assay: Induction of apoptosis in human EC109 cells assessed as change in phosphorylated ASK1 expression at 3 uM incubated for 24 hrs in presence of N-acetylcysteine by Western blot analysis; type: functional, cell-based
ECa-109 cell line [22] = assay: Induction of apoptosis in human EC109 cells assessed as change in phosphorylated MKK4 expression at 3 uM incubated for 24 hrs in presence of N-acetylcysteine by Western blot analysis; type: functional, cell-based
ECa-109 cell line [23] = assay: Induction of apoptosis in human EC-109 cells xenografted in nude BALB/c mouse assessed as reduction in number of cells at 20 to 40 mg/kg, ip administered once daily for 14 days by H and E staining based histopathological analysis; type: functional, organism-based; conditions: dose 20-40 mg/kg, time 14.0 day
ECa-109 cell line [24] = assay: Induction of apoptosis in human EC-109 cells xenografted in BALB/c mouse assessed as change in Bax expression in tumor tissue at 20 mg/kg, ip QD for 14 days by Western blotting analysis relative to control; type: functional, organism-based; conditions: time 14.0 day
ECa-109 cell line [25] = assay: Induction of apoptosis in human EC-109 cells xenografted in BALB/c mouse assessed as increase in cytochrome C in tumor tissue at 40 mg/kg, ip QD for 14 days by Western blotting analysis relative to control; type: functional, organism-based; conditions: time 14.0 day
ECa-109 cell line [26] = assay: Induction of apoptosis in human EC-109 cells xenografted in BALB/c mouse assessed as increase in phosphorylated JNK in tumor tissue at 20 to 40 mg/kg, ip QD for 14 days by Western blotting analysis; type: functional, organism-based; conditions: dose 20-40 mg/kg, time 14.0 day
[27] = Toxicity in BALB/c mouse assessed as effect on WBC level at 20 mg/kg, ip administered once daily for 14 days (reference value: 4.42 +/- 0.79 10^9/L); type: organism-based; conditions: in vivo, 336 h, time 14 day
[28] = Toxicity in BALB/c mouse assessed as HCT at 20 mg/kg, ip administered once daily for 14 days (reference value: 49.08 +/- 1.56 %); type: organism-based; conditions: in vivo, 336 h, time 14 day
[29] = Toxicity in BALB/c mouse assessed as HCT at 40 mg/kg, ip administered once daily for 14 days (reference value: 49.08 +/- 1.56 %); type: organism-based; conditions: in vivo, 336 h, time 14 day
[30] = Toxicity in BALB/c mouse assessed as RDW at 20 mg/kg, ip administered once daily for 14 days (reference value: 14.18 +/- 0.26 %); type: organism-based; conditions: in vivo, 336 h, time 14 day
[31] = Toxicity in BALB/c mouse assessed as effect on uric acid content at 20 to 40 mg/kg, ip administered once daily for 14 days; type: organism-based; conditions: in vivo, 336 h, dose 20-40 mg/kg, time 14 day
[32] = Toxicity in BALB/c mouse assessed as abnormalities in heart at 20 to 40 mg/kg, ip administered once daily for 14 days by HE staining based assay; type: organism-based; conditions: in vivo, 336 h, dose 20-40 mg/kg, time 14 day
[33] = Toxicity in BALB/c mouse assessed as abnormalities in lungs at 20 to 40 mg/kg, ip administered once daily for 14 days by HE staining based assay; type: organism-based; conditions: in vivo, 336 h, dose 20-40 mg/kg, time 14 day

C=C1C(=O)[C@@]23[C@H](O)C[C@@H]4C(C)(C)CCC[C@@]4(COC(C)=O)[C@@H]2[C@@H](O)C[C@H]1[C@H]3OC(=O)c1ccc(CCl)cc1
IC50 (MGC-803): 200 nM | IC50 (MCF7): 350 nM | inhibition (ECa-109 cell line [1]): Dose-dependent effect | inhibition (ECa-109 cell line [2]): Tde | Activity (HUVEC [3]): Dose-dependent effect | Activity (HUVEC [4]): Tde | IC50 (GES1): 520 nM | inhibition (ECa-109 [5]): Active | Activity (ECa-109 cell line [6]): 93.1% | Activity (ECa-109 cell line [7]): 26.3% | Activity (ECa-109 cell line [8]): 47.1% | Activity (ECa-109 cell line [9]): Dose-dependent effect | Activity (ECa-109 cell line [10]): Dose-dependent effect | Activity (ECa-109 cell line [11]): Dose-dependent effect | Activity (ECa-109 cell line [12]): Dose-dependent effect | Activity (ECa-109 cell line [13]): Active | Activity (ECa-109 cell line [14]): 90% | inhibition (ECa-109 [15]): inactive | Activity (ECa-109 cell line [16]): Active | Activity (ECa-109 cell line [17]): Active | Activity (ECa-109 cell line [18]): inactive | Activity (ECa-109 cell line [19]): 47% | Activity (ECa-109 cell line [20]): 88.2% | Activity (ECa-109 cell line [21]): inactive | Activity (ECa-109 cell line [22]): inactive | Activity (ECa-109 cell line [23]): Active | Activity (ECa-109 cell line [24]): inactive | Activity (ECa-109 cell line [25]): Active | Activity (ECa-109 cell line [26]): Active | Activity [27]: 5.02 10^9/L | Activity [28]: 46.67% | Activity [29]: 46.26% | Activity [30]: 14.32% | Activity [31]: Non-Toxic | Activity [32]: Non-Toxic | Activity [33]: Non-Toxic

Reference: ChEMBL document CHEMBL4706557, “Synthesis and in vitro and in vivo biological evaluation of novel derivatives of flexicaulin A as antiproliferative agents” (Eur J Med Chem, 2020)
